Data reported in patent EP0220825A2, “Pharmaceutical composition for topical application” (DIOMED DEVELOPMENTS LIMITED, priority 1985, dated 1987).
Several values for one entry are separate records, joined by “and”; a condition that tells them apart may be missing. Equal entries are not always repeated.

Assays:
skin = assay: Erythema score after topical application; assay type: in vivo
Source text: Using an erythema scale of 0 to 3, an erythema value of up to 0.5 (which is barely detectable) is considered acceptable. The figures for "area" given in the third column are obtained by graphical integration of a graph of blood cell flux against time obtained using the laser Doppler flowmeter. Any figure in this column greater than about 20 may be regarded as indicative of a useful improvement in local blood flow in the treated area. […] Thus the compositions in accordance with the invention make it possible to obtain a useful increase in local blood flow without appreciable erythema. The compositions of the present invention are thus useful in preventing pressure sores where is it desired to stimulate local blood flow without obvious erythema.

local blood flow = assay: Laser Doppler flowmeter measurement of blood cell flux after topical application; assay type: in vivo; conditions: for No. measurable responses: of ten subjects; for Time to response Initial / Time to response Peak / Time to response Return to zero: ± S.D.
Source text: The blood cell flux is then given by the product of the number of red blood cells found to be moving in the irradiated volume of skin and adjacent tissue and the mean red blood cell velocity. The results expressed by the flowmeter indicate the relative change of the blood cell flux over control conditions, i.e. before application of the composition. […] The figures for "area" given in the third column are obtained by graphical integration of a graph of blood cell flux against time obtained using the laser Doppler flowmeter. Any figure in this column greater than about 20 may be regarded as indicative of a useful improvement in local blood flow in the treated area. […] Thus the compositions in accordance with the invention make it possible to obtain a useful increase in local blood flow without appreciable erythema. The compositions of the present invention are thus useful in preventing pressure sores where is it desired to stimulate local blood flow without obvious erythema.

## CCCCCCOC(=O)c1cccnc1 [hexyl nicotinate, Hexyl nicotinate]
skin; 0.025 % hexyl nicotinate lotion, site arms, single subjects, score 0-3 (0=No erythema, 3=severe erythema)
  Erythema: 0 (4×) and 0.5
skin; 0.025 % hexyl nicotinate lotion, site buttocks, single subjects, score 0-3
  Erythema: 0 (4×) and 1
skin; 0.05 % hexyl nicotinate lotion (Example l), site arms, single subjects, score 0-3
  Erythema: 0 (2×) and 0.5 (2×) and 1
skin; 0.05 % hexyl nicotinate lotion (Example l), site buttocks, single subjects, score 0-3
  Erythema: 1 (2×) and 0.5 and 0 (2×)
skin; 0.10 % hexyl nicotinate lotion, site arms, single subjects, score 0-3
  Erythema: 2 (3×) and 0 and 1
skin; 0.10 % hexyl nicotinate lotion, site buttocks, single subjects, score 0-3
  Erythema: 2 and 1 and 0.5 (2×) and 3
skin; concentrations in the range 0.l to 0.2% by weight of the composition, patients
  Erythema: cause erytheme in a significant proportion of patients
skin; summary of ten subjects, 0.025 % hexyl nicotinate, score 0-3
  Erythema: 0.15
skin; summary of ten subjects, 0.05 % hexyl nicotinate, score 0-3
  Erythema: 0.45
skin; summary of ten subjects, 0.10 % hexyl nicotinate, score 0-3
  Erythema: 1.40
Local blood flow; 0.025 % hexyl nicotinate lotion, site arms, single subjects, area under curve of blood cell flux against time, adjusted to a sensitivity of 1
  Area: 0 cm^2 (4×) and 124.05 cm^2
Local blood flow; 0.025 % hexyl nicotinate lotion, site buttocks, single subjects, area under curve of blood cell flux against time
  Area: 5.00 cm^2 and 0 cm^2 (3×) and 51.59 cm^2
Local blood flow; 0.05 % hexyl nicotinate lotion (Example l), site arms, single subjects, area under curve of blood cell flux against time
  Area: 32.17 cm^2 and 0 cm^2 and 89.59 cm^2 and 80.90 cm^2 and 126.32 cm^2
Local blood flow; 0.05 % hexyl nicotinate lotion (Example l), site buttocks, single subjects, area under curve of blood cell flux against time
  Area: 91.86 cm^2 and 22.28 cm^2 and 4.29 cm^2 and 0 cm^2 and 64.73 cm^2
Local blood flow; 0.10 % hexyl nicotinate lotion, site arms, single subjects, area under curve of blood cell flux against time
  Area: 103.06 cm^2 and 0 cm^2 and 82.80 cm^2 and 152.26 cm^2 and 119.99 cm^2
Local blood flow; 0.10 % hexyl nicotinate lotion, site buttocks, single subjects, area under curve of blood cell flux against time
  Area: 246.74 cm^2 and 119.97 cm^2 and 0 cm^2 and 5.24 cm^2 and 199.76 cm^2
Local blood flow; 0.025 % hexyl nicotinate
  No. measurable responses: 2
  Time to response Initial: 5.5 ± 0.7 min
  Time to response Peak: 22.5 ± 6.4 min
  Time to response Return to zero: 78.5 ± 16.3 min
Local blood flow; 0.05 % hexyl nicotinate
  No. measurable responses: 8
  Time to response Initial: 10.6 ± 5.0 min
  Time to response Peak: 27.9 ± 12.3 min
  Time to response Return to zero: 75.8 ± 19.2 min
Local blood flow; 0.10 % hexyl nicotinate
  No. measurable responses: 8
  Time to response Initial: 7.8 ± 2.3 min
  Time to response Peak: 20.8 ± 6.4 min
  Time to response Return to zero: 83.3 ± 17.7 min
Local blood flow; summary of ten subjects, 0.025 % hexyl nicotinate
  Area: 18.05 cm^2
Local blood flow; summary of ten subjects, 0.05 % hexyl nicotinate
  Area: 51.21 cm^2
Local blood flow; summary of ten subjects, 0.10 % hexyl nicotinate
  Area: 102.98 cm^2
